Peptide text beside a SMILES is read from it.
Columns and labels:
[1] = target: T1, human WSX-1, human CNTF receptor and human gp130 overexpressed in F11 cells (Homo sapiens, UniProt Q6UWB1); assay: Immunofluorescence-based HN binding assay (1) after ectopic overexpression of receptor genes in F11 cells; conditions: large amount (10 μM) of non-labeled peptide
T1 construct: His; V5 (C); expressed in transfected cells; host or cells: F11 cells
T1 sequence (Q6UWB1 33-636): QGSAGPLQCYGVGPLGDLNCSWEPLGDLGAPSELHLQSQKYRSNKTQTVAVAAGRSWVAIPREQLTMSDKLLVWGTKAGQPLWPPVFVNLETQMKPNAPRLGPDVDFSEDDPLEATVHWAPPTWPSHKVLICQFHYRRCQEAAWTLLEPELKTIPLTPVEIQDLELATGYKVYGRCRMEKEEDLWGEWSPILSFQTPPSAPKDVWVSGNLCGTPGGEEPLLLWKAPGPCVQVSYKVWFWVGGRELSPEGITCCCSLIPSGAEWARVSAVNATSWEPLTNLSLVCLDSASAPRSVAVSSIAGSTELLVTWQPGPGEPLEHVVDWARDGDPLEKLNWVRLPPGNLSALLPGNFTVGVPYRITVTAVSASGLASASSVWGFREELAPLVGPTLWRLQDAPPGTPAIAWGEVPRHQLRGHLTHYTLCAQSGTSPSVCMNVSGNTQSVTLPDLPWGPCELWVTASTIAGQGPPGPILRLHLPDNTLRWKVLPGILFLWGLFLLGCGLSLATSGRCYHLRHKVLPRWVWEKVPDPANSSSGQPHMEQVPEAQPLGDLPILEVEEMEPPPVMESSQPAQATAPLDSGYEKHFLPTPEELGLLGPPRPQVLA
T1 sequence (P40189 23-918 partner): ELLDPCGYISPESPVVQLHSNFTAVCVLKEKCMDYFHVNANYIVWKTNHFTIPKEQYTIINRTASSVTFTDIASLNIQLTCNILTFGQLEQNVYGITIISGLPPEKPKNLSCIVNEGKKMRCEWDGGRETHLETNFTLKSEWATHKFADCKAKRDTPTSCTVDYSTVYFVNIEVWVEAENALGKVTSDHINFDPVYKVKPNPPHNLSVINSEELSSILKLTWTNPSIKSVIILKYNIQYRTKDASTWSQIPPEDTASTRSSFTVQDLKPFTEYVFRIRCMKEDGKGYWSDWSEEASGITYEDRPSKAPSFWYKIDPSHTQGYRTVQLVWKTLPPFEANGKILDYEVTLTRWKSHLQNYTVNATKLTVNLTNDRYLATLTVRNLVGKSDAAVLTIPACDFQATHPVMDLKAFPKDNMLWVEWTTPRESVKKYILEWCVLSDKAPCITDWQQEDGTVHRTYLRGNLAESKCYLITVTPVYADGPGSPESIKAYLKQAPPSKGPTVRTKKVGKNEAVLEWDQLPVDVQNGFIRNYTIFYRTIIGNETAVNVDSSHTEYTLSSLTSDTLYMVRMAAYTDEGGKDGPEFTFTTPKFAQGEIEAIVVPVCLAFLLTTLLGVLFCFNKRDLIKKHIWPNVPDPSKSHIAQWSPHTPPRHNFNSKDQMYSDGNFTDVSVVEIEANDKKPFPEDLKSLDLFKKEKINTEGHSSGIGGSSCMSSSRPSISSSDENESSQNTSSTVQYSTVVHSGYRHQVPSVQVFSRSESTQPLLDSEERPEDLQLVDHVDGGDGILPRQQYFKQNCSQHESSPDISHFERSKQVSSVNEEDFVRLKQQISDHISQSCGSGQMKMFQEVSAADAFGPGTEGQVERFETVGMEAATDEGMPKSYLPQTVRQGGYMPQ
Description: A) F11 cells were transfected with 0.5 μg of the pEF/BOS vector, pEF-mycHis CREME9, pEF-mycHishuman WSX-1, or pEF-V5-human CNTF-R in association with 0.5 μg of pCAG-human gp130, or transfected with 0.5 μg of pEF-mycHis human WSX-1 and pEF-V5-human CNTF-R and pCAG-human gp130. To keep the total amounts of transfected vectors to be 1.5 μg, an appropriate amount of the pEFBOS vector was added. The graphs show the results of a binding amount of the biotin-labeled HN to each transfected cell by the detection of immunofluorescence reaction. The protein expression by immunoblot analysis is shown below in photos.
B) F11 cells were transfected with 0.5 μg of pEF-myc His human CREME9 or pEF-mycHis human WSX-1 in association with 0.5 μg of pCAG-human gp130. For competition, 10 μM of non-labeled (cold) HNG or HNA was added for some experiments. Fluorescence signals were detected with a laser-scanning, confocal microscope LSM (Carl Zeiss, Germany) (right panels).
F11 cells (7×10^4/well in 6-well plates) were replated into 96-well plates (7×10^3 cells/well) at 24 hrs after transfection with indicated amounts of the plasmids encoding mycHis-WSX or V5-CNTF-R, and with PCAG-human gp130 if required. […] Immunofluorescence intensity was measured (excitation=485 nm, emission=535 nm) with a spectrofluorometer (Wallac1420 ARVOsx Multi Label Counter). […]

[2] = tested on: neuronal cell death by AD-related insults; conditions: cited from earlier work

Compound | effect of unlabeled peptide on binding of HN to cells expressing WSX-1 and gp130 [1] | potency relative to HN [2] [fold] | HN activity of the mutant ([2]; negative control)
CC[C@H](C)[C@H](NC(=O)[C@H](CCC(=O)O)NC(=O)CNC(=O)[C@@H](NC(=O)[C@H](CC(C)C)NC(=O)[C@H](CC(C)C)NC(=O)[C@H](CC(C)C)NC(=O)[C@H](CC(C)C)NC(=O)[C@H](CS)NC(=O)[C@H](CO)NC(=O)[C@H](Cc1ccccc1)NC(=O)CNC(=O)[C@H](CCCNC(=N)N)NC(=O)[C@@H]1CCCN1C(=O)[C@H](C)NC(=O)[C@@H](N)CCSC)[C@@H](C)O)C(=O)N[C@@H](CC(=O)O)C(=O)N[C@@H](CC(C)C)C(=O)N1CCC[C@H]1C(=O)N[C@H](C(=O)N[C@@H](CCCCN)C(=O)N[C@@H](CCCNC(=N)N)C(=O)N[C@@H](CCCNC(=N)N)C(=O)N[C@@H](C)C(=O)O)C(C)C [HNG, S14 G-Humanin] (H-MAPRGFSCLLLLTGEIDLPVKRRA-OH; N-terminus and C-terminus assumed) | nullified | 1000 | 
C8A-Humanin (MAPRGFSALLLLTSEIDLPVKRRA) [HNA] | not |  | null activity

Source: patent US8173771B2, “Humanin receptor or humanin-like polypeptide receptor” (Keio Univeristy, priority 2005, dated 2012)
